This note sets out measurements from US20260092073A1, “NOVEL COMPOUNDS” (Hoffmann-La Roche Inc., priority 2023, published 2026).

In data set [1] the target is T1, hERG cardiac potassium channel (Homo sapiens, UniProt Q12809).
T1 construct: Evotec (cryopreserved) ATCC PTA-6812; host or cells: CHO crelox hERG cell line (Chinese hamster)
Briefly: hERG screening assay (automated patch clamp, CHO-hERG cells). In kind it is cell-based. The settings on record: CHO crelox hERG cells (CHO cells that express hERG), whole-cell patch clamp, 35-37° C. The source says: In the drug development process of small molecules, one of the most frequent adverse side effects, leading to the failure of drugs, is the cardiac arrhythmias. Such failure is often related to the capacity of the drug to inhibit the human ether-à-go-go-related gene (hERG) cardiac potassium channel. Having no or low inhibition of the hERG cardiac potassium channel is therefore considered as beneficial.
The CHO crelox hERG cell line (ATCC reference Nr. PTA-6812, female Chinese hamster cells) was generated and validated at Roche. Ready-to-use frozen instant CHO-hERG cells were cryopreserved at Evotec (Germany) and used directly in the experiments.
The extracellular solution contains (in mM): NaCl 150; KCl 4; CaCl2 1; MgCl2 1; HEPES 10; pH 7.2-7.4 with NaOH, osmolarity 290-330 mOsm. The internal solution contains (in mM): KCl, 10; KF, 100; NaCl, 10; HEPES, 10; EGTA, 20; pH=7.0-7.4 with KOH, osmolarity 260-300 mOsm.
The effects of a compound on hERG K+-currents parameters will be evaluated at 2 concentrations in at least 4 cells.
The hERG test is performed using automated patch clamp system SynchroPatch® 384 (Nanion Technologies GmbH, Germany). K+ currents are measured with the patch-voltage-clamp technique in the whole-cell configuration at 35-37° C.
The amplitudes of IKhERG were recorded in each concentration of drug and they were compared to the vehicle control values (taken as 100%) to define fractional blocks. The concentration-response data were fitted with the following relationship:
Concentration-response curves were fitted by non-linear regression analysis using EworkBook suite (ID Business Solutions Ltd, UK). Data fit was done with the 4 Parameter Logistic Model (fit=(A+(B/(1+((x/C)^D)))), where A=0 and B=100).

Data set [2] addresses T2, NLRP3 (Homo sapiens, UniProt Q96P20). As to the kind of experiment: THP-1 cells pyroptosis assay. In kind it is cell-based. The settings on record: LPS 1.0 μg/ml, nigericin 5 μM, resazurin readout. Also on record: Seed THP-1 cells (25,000 cells/well) containing 1.0 μg/ml LPS; host or cells: THP-1 cells, LPS-primed, nigericin-stimulated. The text has this:
It is well established that the activation of NLRP3 leads to cell pyroptosis and this feature plays an important part in the manifestation of clinical disease (Yan-gang Liu et al., Cell Death & Disease, 2017, 8(2), e2579; Alexander Wree et al., Hepatology, 2014, 59(3), 898-910; Alex Baldwin et al., Journal of Medicinal Chemistry, 2016, 59(5), 1691-1710; Ema Ozaki et al., Journal of Inflammation Research, 2015, 8, 15-27; Zhen Xie & Gang Zhao, Neuroimmunology Neuroinflammation, 2014, 1(2), 60-65; Mattia Cocco et al., Journal of Medicinal Chemistry, 2014, 57(24), 10366-10382; T. Satoh et al., Cell Death & Disease, 2013, 4, e644). Therefore, it is anticipated that inhibitors of NLRP3 will block pyroptosis, as well as the release of pro-inflammatory cytokines (e.g. […]) from the cell.
THP-1 cells (ATCC #TIB-202) were grown in RPMI containing L-glutamine (Gibco #11835) supplemented with 1 mM sodium pyruvate (Sigma #S8636) and penicillin (100 units/ml)/streptomycin (0.1 mg/ml) (Sigma #P4333) in 10% Fetal Bovine Serum (FBS) (Sigma #F0804). The cells were routinely passaged and grown to confluency (˜10^6 cells/ml). On the day of the experiment, THP-1 cells were harvested and resuspended into RPMI medium (without FBS). The cells were then counted and viability (>90%) checked by Trypan blue (Sigma #T8154). Appropriate dilutions were made to give a concentration of 625,000 cells/ml. To this diluted cell solution was added LPS (Sigma #L4524) to give a […] Final Assay Concentration (FAC). 40 μl of the final preparation was aliquoted into each well of a 96-well plate. The plate thus prepared was used for compound screening.
The following method step-by-step assay was followed for compound screening.
Seed THP-1 cells (25,000 cells/well) containing 1.0 μg/ml LPS in 40 μl of RPMI medium (without FBS) in 96-well, black walled, clear bottom cell culture plates coated with poly-D-lysine (VWR #734-0317)
Add 5 μl compound (8 points half-log dilution, with 10 μM top dose) or vehicle (DMSO 0.1% FAC) to the appropriate wells
(§1) Incubate for 3 hours at 37° C., 5% CO2
Add 5 μl nigericin (Sigma #N7143) (FAC 5 μM) to all wells
(§2) Incubate for 1 hr at 37° C., 5% CO2
At the end of the incubation period, spin plates at 300 xg for 3 mins and remove supernatant
Then add 50 μl of resazurin (Sigma #R7017) (FAC 100 μM resazurin in RPMI medium without FBS) and incubate plates for a further 1-2 hours at 37° C. and 5% CO2
Plates were read in an Envision reader at Ex 560 nm and Em 590 nm
(§3) IC50 data is fitted to a non-linear regression equation (log inhibitor vs response-variable slope 4-parameters)

The target in data set [3] is T2, NLRP3. As to the kind of experiment: Human whole blood IL-1β release assay. In kind it is cell-based. Details: Human whole blood in Li-heparin tubes was obtained from healthy donors; from tissue; host or cells: human whole blood from healthy donors. The settings on record: LPS, nigericin 10 μM, IL-1β by AlphaLisa. The method, then: For systemic delivery, the ability to inhibit NLRP3 when the compounds are present within the bloodstream is of great importance. For this reason, the NLRP3 inhibitory activity of a number of compounds in human whole blood was investigated in accordance with the following protocol.
Human whole blood in Li-heparin tubes was obtained from healthy donors from a volunteer donor panel.
Plate out 80 μl of whole blood containing […] of LPS in 96-well, clear bottom cell culture plate (Corning #3585)
Add 10 μl compound (8 points half-log dilution with 10 μM top dose) or vehicle (DMSO 0.1% FAC) to the appropriate wells
as §1
Add 10 μl nigericin (Sigma #N7143) (10 μM FAC) to all wells
as §2
At the end of the incubation period, spin plates at 300 xg for 5 mins to pellet cells and remove 20 μl of supernatant and add to 96-well v-bottom plates for IL-1β analysis (note: these plates containing the supernatants can be stored at −80° C. to be analysed at a later date)
IL-1β was measured according to the manufacturer protocol (Perkin Elmer-AlphaLisa IL-1 Kit AL220F-5000)
as §3

For data set [4], the target named is T3, human P-gp (Homo sapiens, UniProt P08183).
T3 construct: expressed in transfected cells; host or cells: LLC-PK1 (porcine kidney epithelial cells)
T3 sequence (P08183 whole entry): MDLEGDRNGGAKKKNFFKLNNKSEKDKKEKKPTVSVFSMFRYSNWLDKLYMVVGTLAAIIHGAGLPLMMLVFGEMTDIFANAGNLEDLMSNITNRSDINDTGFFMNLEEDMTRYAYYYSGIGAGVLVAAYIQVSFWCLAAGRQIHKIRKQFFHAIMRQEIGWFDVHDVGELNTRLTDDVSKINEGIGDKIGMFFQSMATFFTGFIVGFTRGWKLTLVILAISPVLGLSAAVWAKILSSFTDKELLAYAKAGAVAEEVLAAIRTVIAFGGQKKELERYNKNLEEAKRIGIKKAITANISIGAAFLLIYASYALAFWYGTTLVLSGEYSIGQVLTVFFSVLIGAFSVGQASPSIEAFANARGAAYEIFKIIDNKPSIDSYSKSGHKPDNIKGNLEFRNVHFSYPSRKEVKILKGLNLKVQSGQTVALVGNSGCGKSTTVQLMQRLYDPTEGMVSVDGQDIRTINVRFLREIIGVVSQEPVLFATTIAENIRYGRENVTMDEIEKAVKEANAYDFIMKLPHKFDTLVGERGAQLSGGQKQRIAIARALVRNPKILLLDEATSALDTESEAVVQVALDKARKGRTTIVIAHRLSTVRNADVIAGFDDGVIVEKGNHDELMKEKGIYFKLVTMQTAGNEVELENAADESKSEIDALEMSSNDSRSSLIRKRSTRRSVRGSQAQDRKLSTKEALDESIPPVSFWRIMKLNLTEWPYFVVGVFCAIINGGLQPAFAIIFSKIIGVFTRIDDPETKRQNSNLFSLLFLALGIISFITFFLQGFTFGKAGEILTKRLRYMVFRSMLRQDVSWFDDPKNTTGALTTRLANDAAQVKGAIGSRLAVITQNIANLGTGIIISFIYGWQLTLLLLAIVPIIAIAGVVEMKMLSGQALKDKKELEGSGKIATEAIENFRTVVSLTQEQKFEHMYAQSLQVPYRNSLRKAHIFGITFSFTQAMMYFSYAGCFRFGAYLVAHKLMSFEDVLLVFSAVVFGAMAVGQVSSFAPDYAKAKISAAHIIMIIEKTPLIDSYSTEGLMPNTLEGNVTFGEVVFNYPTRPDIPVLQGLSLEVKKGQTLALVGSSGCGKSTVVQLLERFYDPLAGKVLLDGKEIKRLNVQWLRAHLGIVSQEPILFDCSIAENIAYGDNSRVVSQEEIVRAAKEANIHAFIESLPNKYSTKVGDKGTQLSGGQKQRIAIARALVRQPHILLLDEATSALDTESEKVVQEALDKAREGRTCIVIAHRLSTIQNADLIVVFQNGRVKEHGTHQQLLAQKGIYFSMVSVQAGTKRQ
As to the kind of experiment: Transcellular human P-gp assay (transfected LLC-PK1 cells). It is filed as in vitro ADME. The settings on record: LLC-PK1 cells over-expressing human P-gp. The source says: The general assay uses transfected LLC-PK1 cells (porcine kidney epithelial cells) over-expressing human or mouse P-gp, cultured on 96 well semi-permeable filter membrane plates, where they form a polarized monolayer with tight junctions, and act as a barrier between the apical and basolateral compartment.
P-gp is expressed in the apical-facing membrane of the monolayer. […] J. Pharmacol. Exp Ther., 2021, 376, 322-329.

SMILES strings stand for the structures.

T1 sequence (Q12809 whole entry): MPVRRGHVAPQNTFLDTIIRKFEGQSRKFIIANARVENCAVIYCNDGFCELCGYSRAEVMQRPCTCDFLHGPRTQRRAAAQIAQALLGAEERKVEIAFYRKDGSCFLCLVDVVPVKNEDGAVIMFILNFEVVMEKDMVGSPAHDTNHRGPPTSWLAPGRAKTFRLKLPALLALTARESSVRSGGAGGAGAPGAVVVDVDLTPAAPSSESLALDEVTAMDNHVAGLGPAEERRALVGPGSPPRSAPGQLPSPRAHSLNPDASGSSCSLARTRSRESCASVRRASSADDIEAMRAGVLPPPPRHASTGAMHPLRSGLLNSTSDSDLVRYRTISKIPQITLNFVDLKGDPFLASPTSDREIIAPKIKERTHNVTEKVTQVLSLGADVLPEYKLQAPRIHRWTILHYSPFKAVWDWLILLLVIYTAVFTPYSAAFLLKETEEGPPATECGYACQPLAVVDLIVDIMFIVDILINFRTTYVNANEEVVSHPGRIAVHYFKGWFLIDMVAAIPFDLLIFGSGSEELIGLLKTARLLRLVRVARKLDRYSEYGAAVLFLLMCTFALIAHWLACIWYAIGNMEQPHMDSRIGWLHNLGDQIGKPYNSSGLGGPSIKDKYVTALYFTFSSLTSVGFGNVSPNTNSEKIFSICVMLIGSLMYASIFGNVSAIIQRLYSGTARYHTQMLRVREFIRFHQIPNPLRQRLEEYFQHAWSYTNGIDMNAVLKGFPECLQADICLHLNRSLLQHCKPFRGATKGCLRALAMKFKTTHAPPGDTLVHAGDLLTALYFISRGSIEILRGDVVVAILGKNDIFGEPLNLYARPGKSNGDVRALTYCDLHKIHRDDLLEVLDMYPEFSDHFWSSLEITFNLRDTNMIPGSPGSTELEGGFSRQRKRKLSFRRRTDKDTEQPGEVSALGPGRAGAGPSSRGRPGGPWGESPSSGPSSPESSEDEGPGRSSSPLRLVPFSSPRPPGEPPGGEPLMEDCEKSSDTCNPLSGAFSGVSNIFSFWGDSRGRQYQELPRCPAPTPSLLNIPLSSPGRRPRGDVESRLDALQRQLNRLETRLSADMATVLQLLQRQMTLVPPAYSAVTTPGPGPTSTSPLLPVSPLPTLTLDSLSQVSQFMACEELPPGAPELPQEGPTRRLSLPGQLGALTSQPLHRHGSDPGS
T2 sequence (Q96P20 whole entry): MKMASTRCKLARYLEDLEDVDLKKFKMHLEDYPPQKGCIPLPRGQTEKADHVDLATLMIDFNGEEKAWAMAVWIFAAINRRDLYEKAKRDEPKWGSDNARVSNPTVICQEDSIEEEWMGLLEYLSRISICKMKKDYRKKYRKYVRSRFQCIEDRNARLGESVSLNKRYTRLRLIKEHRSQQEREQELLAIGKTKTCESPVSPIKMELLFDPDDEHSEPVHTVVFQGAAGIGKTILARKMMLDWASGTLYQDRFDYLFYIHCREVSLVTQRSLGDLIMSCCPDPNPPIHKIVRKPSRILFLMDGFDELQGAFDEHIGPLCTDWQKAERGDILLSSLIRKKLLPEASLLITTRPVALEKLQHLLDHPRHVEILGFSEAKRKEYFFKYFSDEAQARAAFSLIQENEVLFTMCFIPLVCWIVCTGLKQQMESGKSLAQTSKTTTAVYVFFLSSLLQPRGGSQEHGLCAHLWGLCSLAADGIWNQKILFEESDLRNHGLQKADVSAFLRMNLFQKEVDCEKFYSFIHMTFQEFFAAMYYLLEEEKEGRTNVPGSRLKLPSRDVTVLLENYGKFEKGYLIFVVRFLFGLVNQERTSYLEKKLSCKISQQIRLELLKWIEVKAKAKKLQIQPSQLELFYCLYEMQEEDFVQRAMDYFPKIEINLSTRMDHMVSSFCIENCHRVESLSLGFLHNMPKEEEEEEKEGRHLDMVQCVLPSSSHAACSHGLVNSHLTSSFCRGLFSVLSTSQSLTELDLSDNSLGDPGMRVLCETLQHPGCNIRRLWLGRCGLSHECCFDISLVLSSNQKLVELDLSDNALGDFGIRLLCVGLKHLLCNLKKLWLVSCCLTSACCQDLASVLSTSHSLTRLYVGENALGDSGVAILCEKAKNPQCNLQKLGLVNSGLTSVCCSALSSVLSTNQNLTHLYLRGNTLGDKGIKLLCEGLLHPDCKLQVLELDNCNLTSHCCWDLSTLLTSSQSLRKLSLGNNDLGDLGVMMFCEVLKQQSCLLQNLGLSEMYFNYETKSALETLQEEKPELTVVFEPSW

In turn, `Cc1cc2c(c(O)c1-c1cnc3oc(N[C@@H]4CCCN(CCO)C4)nc3n1)CCC2` [Example 18, 5-[2-[[(3R)-1-(2-Hydroxyethyl)-3-piperidyl]amino]oxazolo[4,5-b]pyrazin-5-yl]-6-methyl-indan-4-ol] showed an IC20 in data set [1] of 6300 nM. Moreover, it took 2 nM to reach half-maximal inhibition in data set [2] (IC50).
Take `COCc1cc(C#N)cc(O)c1-c1cnc2oc(N[C@@H]3CCCN(CCO)C3)nc2n1` [Example 15, 3-Hydroxy-4-[2-[[(3R)-1-(2-hydroxyethyl)-3-piperidyl]amino]oxazolo[4,5-b]pyrazin-5-yl]-5-(methoxymethyl)benzonitrile;2,2,2-trifluoroacetic Acid]: the IC20 in data set [1] was greater than 10000 nM. The half-inhibitory concentration (IC50) in data set [2] stood at 34 nM; in data set [3], 33 nM.
On to `CCN1C[C@@H](O)C[C@@H](Nc2nc3nc(-c4c(C)cc(C#N)cc4O)cc(F)c3o2)C1` [Example 27, 4-[2-[[(3R,5S)-1-Ethyl-5-hydroxy-3-piperidyl]amino]-7-fluoro-oxazolo[4,5-b]pyridin-5-yl]-3-hydroxy-5-methyl-benzonitrile], for which the IC50 in data set [2] was 6 nM; in data set [3] it was 95 nM.
For `CCN1C[C@@H](O)C[C@@H](Nc2nc3nc(-c4c(C)cc(C#N)cc4O)cc(OC)c3o2)C1` [Example 30, 4-[2-[[(3R,5S)-1-Ethyl-5-hydroxy-3-piperidyl]amino]-7-methoxy-oxazolo[4,5-b]pyridin-5-yl]-3-hydroxy-5-methyl-benzonitrile], the results for the half-inhibitory concentration (IC50) in data set [2] and in data set [3] were 13 nM and 48 nM, respectively.
On to `COCc1cc2c(c(O)c1-c1cnc3oc(N[C@@H]4CCCN(CCO)C4)nc3n1)CCO2` [Example 11, 5-[2-[[(3R)-1-(2-Hydroxyethyl)-3-piperidyl]amino]oxazolo[4,5-b]pyrazin-5-yl]-6-(methoxymethyl)-2,3-dihydrobenzofuran-4-ol], for which the figures for the half-inhibitory concentration (IC50) in data set [2] and in data set [3] were 4 nM and 8 nM, respectively.
`Cc1cc2c(c(O)c1-c1ccc3oc(N[C@@H]4CCCN(CCO)C4)nc3n1)CCO2` [Example 14, 5-[2-[[(3R)-1-(2-Hydroxyethyl)-3-piperidyl]amino]oxazolo[4,5-b]pyridin-5-yl]-6-methyl-2,3-dihydrobenzofuran-4-ol]: in data set [4] (read-out: ER (efflux ratio)), the efflux ratio is 4. In data set [4] (read-out: Permeability), the Papp worked out at 13.5 ×10⁻⁶ cm/s. Also, the results for the half-inhibitory concentration (IC50) in data set [2] and in data set [3] were 0.6 nM and 22 nM, respectively.
With `COCc1cc2c(c(O)c1-c1ccc3oc(N[C@@H]4CCCN(CCO)C4)nc3n1)CCO2` [Example 12, 5-[2-[[(3R)-1-(2-Hydroxyethyl)-3-piperidyl]amino]oxazolo[4,5-b]pyridin-5-yl]-6-(methoxymethyl)-2,3-dihydrobenzofuran-4-ol], the IC20 in data set [1] was greater than 10000 nM. The half-inhibitory concentration (IC50) is 8 nM in data set [2] and 15 nM in data set [3].
As to `Cc1cc2c(c(O)c1-c1cnc3oc(N[C@@H]4C[C@H](O)CN(CCO)C4)nc3n1)CCO2` [Example 24, (3S,5R)-1-(2-Hydroxyethyl)-5-[[5-(4-hydroxy-6-methyl-2,3-dihydrobenzofuran-5-yl)oxazolo[4,5-b]pyrazin-2-yl]amino]piperidin-3-ol], the IC50 worked out at 19 nM in data set [2] and 53 nM in data set [3].
Turning to `Cc1cc(C(F)(F)F)cc(O)c1-c1ccc2oc(N[C@@H]3C[C@H](O)CN(CCCC(=O)O)C3)nc2n1` [Example 5, 4-[(3S,5R)-3-Hydroxy-5-[[5-[2-hydroxy-6-methyl-4-(trifluoromethyl)phenyl]oxazolo[4,5-b]pyridin-2-yl]amino]-1-piperidyl]butanoic Acid], the figures for the concentration for half-maximal inhibition (IC50) in data set [2] and in data set [3] were 51 nM and 432 nM, respectively.
Regarding `CCN1C[C@@H](O)C[C@@H](Nc2nc3nc(-c4c(C)cc5c(c4O)CCO5)cnc3o2)C1` [Example 25, (3S,5R)-1-Ethyl-5-[[5-(4-hydroxy-6-methyl-2,3-dihydrobenzofuran-5-yl)oxazolo[4,5-b]pyrazin-2-yl]amino]piperidin-3-ol], the IC50 in data set [2] amounted to 2 nM; in data set [3], 16 nM.
